The source of these data is patent publication US8741892B2, “Compounds” (Boehringer Ingelheim International GmbH, priority 2011, dated 2014).

Molecules are shown by their SMILES.

The target of the assay is T1, human recombinant mGluR5 (Homo sapiens, UniProt P41594).
T1 construct: expressed in transfected cells; host or cells: HEK 293
T1 sequence (P41594 21-1212): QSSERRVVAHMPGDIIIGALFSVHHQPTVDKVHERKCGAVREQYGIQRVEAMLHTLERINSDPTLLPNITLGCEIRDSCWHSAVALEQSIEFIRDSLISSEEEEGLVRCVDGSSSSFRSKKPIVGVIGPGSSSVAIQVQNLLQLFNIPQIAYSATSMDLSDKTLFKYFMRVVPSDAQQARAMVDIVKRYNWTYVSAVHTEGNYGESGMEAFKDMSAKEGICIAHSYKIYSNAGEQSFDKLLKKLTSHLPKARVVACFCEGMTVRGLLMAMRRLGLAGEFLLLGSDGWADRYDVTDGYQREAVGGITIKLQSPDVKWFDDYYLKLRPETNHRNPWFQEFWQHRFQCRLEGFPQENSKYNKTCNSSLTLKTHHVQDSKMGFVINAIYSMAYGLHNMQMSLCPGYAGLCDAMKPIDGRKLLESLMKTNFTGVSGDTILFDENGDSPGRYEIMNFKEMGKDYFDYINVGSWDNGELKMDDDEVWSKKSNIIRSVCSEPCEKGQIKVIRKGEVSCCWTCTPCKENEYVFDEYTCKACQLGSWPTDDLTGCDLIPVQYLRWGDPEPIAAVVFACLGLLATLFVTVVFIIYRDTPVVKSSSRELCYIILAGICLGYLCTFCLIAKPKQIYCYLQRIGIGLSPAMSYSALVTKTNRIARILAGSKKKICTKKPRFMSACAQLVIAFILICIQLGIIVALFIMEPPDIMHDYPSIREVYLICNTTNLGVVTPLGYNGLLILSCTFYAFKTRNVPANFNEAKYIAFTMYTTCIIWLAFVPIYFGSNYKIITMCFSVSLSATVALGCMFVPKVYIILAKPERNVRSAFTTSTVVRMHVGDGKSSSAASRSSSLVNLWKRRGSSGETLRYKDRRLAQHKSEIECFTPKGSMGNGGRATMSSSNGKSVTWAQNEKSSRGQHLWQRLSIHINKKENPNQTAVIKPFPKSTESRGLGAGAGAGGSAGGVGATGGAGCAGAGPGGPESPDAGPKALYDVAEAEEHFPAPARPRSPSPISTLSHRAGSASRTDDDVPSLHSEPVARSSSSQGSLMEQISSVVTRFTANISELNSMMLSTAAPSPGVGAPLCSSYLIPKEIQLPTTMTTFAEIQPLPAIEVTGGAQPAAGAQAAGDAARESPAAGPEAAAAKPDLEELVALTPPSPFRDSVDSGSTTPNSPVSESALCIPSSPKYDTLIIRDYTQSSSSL
Description: positive modulation of mGluR5, calcium based FLIPR assay. The conditions noted are these: HEK 293 cell line expressing human recombinant mGluR5; EC50 of the modulation from peak Ca fluorescence signal after glutamate at approx. 5% basal stimulation. An outline of the steps: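 HEK 293 cells expressing human recombinant mGluR5, Calcium-4 dye-loaded in Ringer solution pH 7.4. Compound (1% DMSO final) preincubated 5 min, then glutamate at ~5% of maximal effect added; peak Ca2+ fluorescence gives EC50 by nonlinear regression, normalized to DMSO (100%) and 10 μM CDPPB (200%) controls.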
By EC50 is commonly meant the concentration that produces a half-maximal response. In the case of `Cc1nc2c(s1)CCN(C(=O)Cn1nc(-c3ccc(F)c(C)n3)cc1-c1ccccc1)CC2` [Example 7.02.170], the EC50 is 30 nM.

As to `Cc1nc(-c2cc(-c3ccccc3)n(CC(=O)N3CCc4nc(N)sc4CC3)n2)ccc1F` [Example 7.02.171], the EC50 amounted to 68 nM.

Consider `Cc1nc2c(s1)CN(C(=O)Cn1nc(-c3ccc(F)c(C)n3)cc1-c1ccccc1)C2` [Example 7.02.172], for which the EC50 worked out at 64 nM.

As for `Cc1nc2c(o1)CN(C(=O)Cn1nc(-c3ccc(F)c(C)n3)cc1-c1ccccc1)C2` [Example 7.02.173], the 50% effective concentration (EC50) amounted to 38 nM.

In the case of `Cc1nc(N2CCN(C(=O)Cn3nc(-c4ccc(F)c(C)n4)cc3-c3ccccc3)CC2)no1` [Example 7.02.174], the EC50 was determined as 39 nM.

Consider `Cc1nc2c(s1)CCN(C(=O)Cn1nc(-c3cc(C)c(F)cn3)cc1-c1ccccc1)CC2` [Example 7.02.175], for which the EC50 worked out at 59 nM.

In the case of `Cc1nc2c(s1)CN(C(=O)Cn1nc(-c3cc(C)c(F)cn3)cc1-c1ccccc1)C2` [Example 7.02.176], the EC50 is 221 nM.

Take `Cc1nc2c(o1)CN(C(=O)Cn1nc(-c3cc(C)c(F)cn3)cc1-c1ccccc1)C2` [Example 7.02.177]: the EC50 is 111 nM.

Turning to `Cc1nc(N2CCN(C(=O)Cn3nc(-c4cc(C)c(F)cn4)cc3-c3ccccc3)CC2)no1` [Example 7.02.178], the EC50 came to 69 nM.

On to `Cc1nnc(N2CCN(C(=O)Cn3nc(-c4ccc(F)c(C)n4)cc3-c3ccccc3)CC2)o1` [Example 7.02.179], for which the EC50 was determined as 236 nM.

Consider `Cc1nnc(N2CCN(C(=O)Cn3nc(-c4cc(C)c(F)cn4)cc3-c3ccccc3)CC2)o1` [Example 7.02.180], for which the EC50 turned out to be 1070 nM.

`CCc1cc(-c2cc(C)c(F)c(C)c2)nn1CC(=O)N1Cc2nc(C)sc2C1` [Example 7.02.181]: the EC50 was 398 nM.

As to `CCc1cc(-c2cccc(C#N)c2)nn1CC(=O)N1CC=C(c2ncc(C)o2)CC1` [Example 7.02.182], the half-maximal effective concentration (EC50) stood at 65 nM.

As for `CCc1cc(-c2cccc(C#N)c2)nn1CC(=O)N1CCC(c2ncc(C)o2)CC1` [Example 7.02.183], the EC50 came out at 330 nM.

As for `CCc1cc(-c2cccc(C#N)c2)nn1CC(=O)N1CCc2nc(C)sc2CC1` [Example 7.02.184], the EC50 worked out at 132 nM.

Consider `CCc1cc(-c2cccc(C#N)c2)nn1CC(=O)N1CCc2nc(N)sc2CC1` [Example 7.02.185], for which the EC50 is 258 nM.

In the case of `CCc1cc(-c2cccc(C#N)c2)nn1CC(=O)N1Cc2nc(C)sc2C1` [Example 7.02.186], the EC50 is 326 nM.

`CCc1cc(-c2cccc(C#N)c2)nn1CC(=O)N1CCN(c2nnc(C)o2)CC1` [Example 7.02.187]: the EC50 came to 1610 nM.

On to `Cc1cnc(C2=CCN(C(=O)Cn3nc(-c4cccc(C#N)c4)cc3-c3ccccc3)CC2)o1` [Example 7.02.188], for which the EC50 was found to be 19 nM.

On to `Cc1nc2c(s1)CCN(C(=O)Cn1nc(-c3cccc(C#N)c3)cc1-c1ccccc1)CC2` [Example 7.02.189], for which the EC50 came to 15 nM.

`N#Cc1cccc(-c2cc(-c3ccccc3)n(CC(=O)N3CCc4nc(N)sc4CC3)n2)c1` [Example 7.02.190]: the EC50 was 29 nM.

In the case of `Cc1nc2c(s1)CN(C(=O)Cn1nc(-c3cccc(C#N)c3)cc1-c1ccccc1)C2` [Example 7.02.191], the EC50 worked out at 80 nM.

Take `Cc1nnc(N2CCN(C(=O)Cn3nc(-c4cccc(C#N)c4)cc3-c3ccccc3)CC2)o1` [Example 7.02.192]: the EC50 amounted to 82 nM.

For `Cc1nnc(C2CCN(C(=O)Cn3nc(-c4cccc(C#N)c4)cc3-c3ccccc3)CC2)o1` [Example 7.02.193], the EC50 is 290 nM.

As for `Cc1cnc(C2CCN(C(=O)Cn3nc(-c4cccc(C#N)c4)cc3-c3ccccc3)CC2)o1` [Example 7.02.194], the EC50 came out at 63 nM.

Turning to `Cc1nc(N2CCN(C(=O)Cn3nc(-c4ccc(F)c(C)c4)cc3-c3ccccc3)CC2)no1` [Example 7.02.195], the EC50 is 2 nM.

In the case of `CCc1cc(-c2ccc(F)c(C)c2)nn1CC(=O)N1CCN(c2noc(C)n2)CC1` [Example 7.02.196], the EC50 amounted to 43 nM.

As to `Cc1cccc(-c2cc(-c3ccccc3)n(CC(=O)N3CCC(c4nnc(C)o4)CC3)n2)c1` [Example 7.02.197], the half-maximal effective concentration (EC50) came out at 90 nM.

As for `Cc1cccc(-c2cc(-c3ccccc3)n(CC(=O)N3CCc4nc(C)sc4CC3)n2)c1` [Example 7.02.198], the half-maximal effective concentration (EC50) amounted to 6 nM.

`Cc1cccc(-c2cc(-c3ccccc3)n(CC(=O)N3CCc4nc(N)sc4CC3)n2)c1` [Example 7.02.199]: the half-maximal effective concentration (EC50) was found to be 16 nM.

Consider `Cc1cccc(-c2cc(-c3ccccc3)n(CC(=O)N3Cc4nc(C)sc4C3)n2)c1` [Example 7.02.200], for which the 50% effective concentration (EC50) came out at 24 nM.

`COc1cc(C2CCN(C(=O)Cn3nc(-c4cccc(C)c4)cc3-c3ccccc3)CC2)ncn1` [Example 7.02.201]: the EC50 worked out at 171 nM.

Take `COc1cc(C2=CCN(C(=O)Cn3nc(-c4cccc(C)c4)cc3-c3ccccc3)CC2)ncn1` [Example 7.02.202]: the EC50 worked out at 19 nM.

As to `COc1cnc(C2CCN(C(=O)Cn3nc(-c4cccc(C)c4)cc3-c3ccccc3)CC2)nc1` [Example 7.02.203], the EC50 came to 178 nM.

Turning to `COc1cnc(C2=CCN(C(=O)Cn3nc(-c4cccc(C)c4)cc3-c3ccccc3)CC2)nc1` [Example 7.02.204], the EC50 was 47 nM.

For `CCc1cc(-c2ccc(F)c(C)c2)nn1CC(=O)N1CC=C(c2ncc(C)o2)CC1` [Example 7.02.205], the EC50 was determined as 18 nM.

On to `CCCc1cc(-c2ccc(F)c(C)c2)nn1CC(=O)N1CC=C(c2ncc(C)o2)CC1` [Example 7.02.206], for which the EC50 amounted to 6 nM.

With `CCc1cc(-c2ccc(F)c(C)c2)nn1CC(=O)N1CCC(c2ncc(C)o2)CC1` [Example 7.02.207], the EC50 is 70 nM.

For the compound `CCCc1cc(-c2ccc(F)c(C)c2)nn1CC(=O)N1CCC(c2ncc(C)o2)CC1` [Example 7.02.208], the EC50 is 36 nM.

Consider `CCCc1cc(-c2ccc(F)c(C)c2)nn1CC(=O)N1CCN(c2nnc(C)o2)CC1` [Example 7.02.209], for which the EC50 amounted to 61 nM.

In the case of `CCCc1cc(-c2ccc(F)c(C)c2)nn1CC(=O)N1CCC(c2nnc(C)o2)CC1` [Example 7.02.210], the EC50 was found to be 145 nM.

Turning to `CCCc1cc(-c2ccc(F)c(C)c2)nn1CC(=O)N1CCN(c2noc(C)n2)CC1` [Example 7.02.211], the EC50 is 13 nM.

For `Cc1nc2c(o1)CN(C(=O)Cn1nc(-c3ccc(F)c(C)c3)cc1-c1ccccc1)C2` [Example 7.02.212], the 50% effective concentration (EC50) was 3 nM.

Take `CCc1cc(-c2ccc(F)c(C)c2)nn1CC(=O)N1Cc2nc(C)oc2C1` [Example 7.02.213]: the EC50 came out at 26 nM.

`CCCc1cc(-c2ccc(F)c(C)c2)nn1CC(=O)N1Cc2nc(C)oc2C1` [Example 7.02.214]: the EC50 is 11 nM.

Take `CCCc1cc(-c2ccc(F)c(C)c2)nn1CC(=O)N1CCc2nc(C)oc2CC1` [Example 7.02.215]: the EC50 amounted to 9 nM.

On to `Cc1cc(-c2cc(-c3ccccc3)n(CC(=O)N3CCN(c4nccs4)CC3)n2)ccc1F` [Example 7.02.216], for which the EC50 worked out at 6 nM.

For the compound `CCc1cc(-c2ccc(F)c(C)c2)nn1CC(=O)N1CCN(c2nccs2)CC1` [Example 7.02.217], the EC50 was found to be 56 nM.

Regarding `CCc1nnc(C2CCN(C(=O)Cn3nc(-c4ccc(F)c(C)c4)cc3-c3ccccc3)CC2)o1` [Example 7.02.218], the EC50 amounted to 54 nM.
